Results taken from patent publication US7445794B1, “Methods for treating human proliferative diseases, with a combination of fatty acid metabolism inhibitors and glycolytic inhibitors” (The Regents of the University of Colorado, priority 2004, dated 2008).

System: HL60 MDR tumor
Experiment: Tumor volume of HL60 MDR tumor implanted in nude mice
Type: in vivo
Settings: for effect on tumor growth (in words): over the 21 day period, versus control
Text: Mice were purchased from the Animal Production Program of National Cancer Institute, Frederick, Md. The animals used were Athymic Ncr-nu/nu (strain code 01B74). HL60 MDR cells were harvested and reconstituted at 1 million cells per 100 microliters of phosphate buffered saline. One million tumor cells per injection site were implanted subcutaneously on two sites of the animal's back. Treatments began at exactly seven days post tumor implantation. Tumor size/volume was monitored twice weekly using measurement calipers, with the formula Tumor Volume=π×(short diameter)^2×(long diameter)/6.
Treatment groups were: etomoxir at 200 micrograms/day; 2-deoxy-D-glucose at 2.5 mM in 100 microliters daily; and the combination daily of etomoxir at 200 micrograms and 2-deoxy-D-glucose at 2.5 mM in 100 microliters.
HL60 MDR human leukemia cells were cultured and implanted in nude mice as described above under “Materials and Methods”. The mice were given 200 ug of Etomoxir, 2.5 mM 2-Deoxy-D-glucose, or both 200 ug of Etomoxir and 2.5 mM 2-Deoxy-D-glucose given daily by IP injection. Treatment began exactly one week after tumor implantation.

SMILES | effect on tumor growth (in words) | tumor volume Day 7 (Day 7 after implantation (start of daily IP treatment), etomoxir 200 ug, 2-deoxy-D-glucose 2.5 mM)
OC[C@H]1O[C@H](O)CC(O)[C@@H]1O (stereo partly drawn) [2-deoxy-D-glucose] | increase in tumor growth | –
CCOC(=O)C1(CCCCCCOc2ccc(Cl)cc2)CO1 (stereo not drawn) [etomoxir, 2-(6-(4-chlorophenoxy)-hexyl)-oxirane-2-carboxylic acid ethyl ester] | increase in tumor growth | 36 mm^3
